Values of other authors as cited in patent US8728545B2, “Extraction method for providing an organic certifiable Stevia rebaudiana extract” (Justbio Inc., priority 2010, dated 2014).
Peptide text beside a SMILES is read from it.

Assays:
[1] = for Sweetness compared to sucrose: principal steviol glycosides found in stevia leaves; for Relative sweetness among steviol glycosides (in words): comparison between glycosides, Crammer and Ikan 1986, 1987
[2] = in water; Crammer and Ikan, 1986

Compound | Sweetness compared to sucrose [1] | Sweetness in Sucrose Equivalence (% SE) [2] [% SE] | Relative sweetness among steviol glycosides (in words) [1]
C=C1C[C@@]23CC[C@H]4[C@@](C)(CCC[C@@]4(C)C(=O)O[C@@H]4O[C@H](CO)[C@@H](O)[C@H](O)[C@H]4O)[C@@H]2CC[C@]1(O[C@@H]1O[C@H](CO)[C@@H](O)[C@H](O)[C@H]1O[C@@H]1O[C@@H](C)[C@H](O)[C@@H](O)[C@H]1O)C3 [Dulcoside A] | 50-120 fold |  | 
O=S(=O)([O-])NC1CCCCC1.[Na+] [Cyclamate-Na] |  | 15.2 | 
C=C1C[C@@]23CC[C@H]4[C@@](C)(CCC[C@@]4(C)C(=O)O[C@@H]4O[C@H](CO)[C@@H](O)[C@H](O)[C@H]4O)[C@@H]2CC[C@]1(O[C@@H]1O[C@H](CO)[C@@H](O)[C@H](O[C@@H]2O[C@H](CO)[C@@H](O)[C@H](O)[C@H]2O)[C@H]1O[C@@H]1O[C@H](CO)[C@@H](O)[C@H](O)[C@H]1O)C3 [Rebaudioside A] | 250-450 fold |  | the sweetest
Rebaudioside B | 300-350 fold |  | 
Rebaudioside C | 50-120 fold |  | 
C=C1C[C@@]23CC[C@H]4[C@@](C)(CCC[C@@]4(C)C(=O)O[C@@H]4O[C@H](CO)[C@@H](O)[C@H](O)[C@H]4O[C@@H]4O[C@H](CO)[C@@H](O)[C@H](O)[C@H]4O)[C@@H]2CC[C@]1(O[C@@H]1O[C@H](CO)[C@@H](O)[C@H](O)[C@H]1O[C@@H]1O[C@H](CO)[C@@H](O)[C@H](O)[C@H]1O)C3 [Rebaudioside E] | 150-300 fold |  | as sweet as stevioside
OC[C@H]1O[C@H](O[C@]2(CCl)O[C@H](CCl)[C@@H](O)[C@@H]2O)[C@H](O)[C@@H](O)[C@H]1Cl [Sucralose] |  | 13.0 | 
O=C1[N-]S(=O)(=O)c2ccccc21.[Na+] [Saccharin-Na] |  | 10.1 | 
COC(=O)[C@H](Cc1ccccc1)NC(=O)[C@@H](N)CC(=O)O [Aspartame] (H-Asp-Phe-OMe) |  | 16.0 | 
C=C1C[C@@]23CC[C@H]4[C@@](C)(CCC[C@@]4(C)C(=O)O[C@@H]4O[C@H](CO)[C@@H](O)[C@H](O)[C@H]4O[C@@H]4O[C@H](CO)[C@@H](O)[C@H](O)[C@H]4O)[C@@H]2CC[C@]1(O[C@@H]1O[C@H](CO)[C@@H](O)[C@H](O[C@@H]2O[C@H](CO)[C@@H](O)[C@H](O)[C@H]2O)[C@H]1O[C@@H]1O[C@H](CO)[C@@H](O)[C@H](O)[C@H]1O)C3 [Rebaudioside D] | 240-450 fold | 10.1 | as sweet as rebaudioside A
CC1(C)[C@@H](O[C@H]2O[C@H](C(=O)O)[C@@H](O)[C@H](O)[C@H]2O[C@@H]2O[C@H](C(=O)O)[C@@H](O)[C@H](O)[C@H]2O)CC[C@]2(C)[C@H]3C(=O)C=C4[C@@H]5C[C@@](C)(C(=O)O)CC[C@]5(C)CC[C@@]4(C)[C@]3(C)CC[C@@H]12.N [Monoammonium Glycyrhisinate] |  | 7.3 | 
CC1=CC(=O)[N-]S(=O)(=O)O1.[K+] [Acesulfame-K] |  | 11.6 | 
C=C1C[C@@]23CC[C@H]4[C@@](C)(CCC[C@@]4(C)C(=O)O[C@@H]4O[C@H](CO)[C@@H](O)[C@H](O)[C@H]4O)[C@@H]2CC[C@]1(O[C@@H]1O[C@H](CO)[C@@H](O)[C@H](O)[C@H]1O[C@@H]1O[C@H](CO)[C@@H](O)[C@H](O)[C@H]1O)C3 [Stevioside] | 300 fold |  | 
COc1ccc(CCC(=O)c2c(O)cc(O[C@@H]3O[C@H](CO)[C@@H](O)[C@H](O)[C@H]3O[C@@H]3O[C@@H](C)[C@H](O)[C@@H](O)[C@H]3O)cc2O)cc1O [Neohesperidin Didydrochalcone] |  | 9.8 | 
C=C1C[C@@]23CC[C@H]4[C@@](C)(CCC[C@@]4(C)C(=O)[O-])[C@@H]2CC[C@]1(O[C@@H]1O[C@@H](CO)[C@@H](O)[C@H](O)[C@@H]1O[C@@H]1O[C@@H](CO)[C@@H](O)[C@H](O)[C@@H]1O)C3.[Na+] [Steviobioside] | 100-125 fold |  | 
COC(=O)[C@H](Cc1ccccc1)NC(=O)[C@H](CC(=O)O)NCCC(C)(C)C [Neotame] |  | 15.1 | 
